According to PubChem BioAssay AID248 (DTP/NCI, 2004):
Values joined by “and” are separate entries in the source; they are usually repeats but may differ in a detail not shown here. Equal values may be shown once. Toxic doses and inconclusive results are not listed.

Test system: L1210 leukemia ip in BDF1 mice, survival T/C
Assay: NCI In Vivo Anticancer Drug Screen. Data for tumor model L1210 Leukemia (intraperitoneal) in B6D2F1 (BDF1) mice
Conditions: endpoint: mean survival time, higher = longer survival
Outline: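 Tumor was transplanted into mice, which were then dosed with test compound or vehicle alone. Survival was recorded for each group, and the treated figure was expressed relative to the control figure.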

[1] = dose: 15.0 mg/kg/injection, schedule: Q01DX009 (ip), vehicle: saline
[2] = dose: 75.0 mg/kg/injection, schedule: Q01DX001 (ip), vehicle: saline
[3] = dose: 150.0 mg/kg/injection, schedule: Q01DX001 (ip), vehicle: saline
[4] = dose: 100.0 mg/kg/injection, schedule: Q04DX003 (ip), vehicle: saline
[5] = dose: 200.0 mg/kg/injection, schedule: Q04DX003 (ip), vehicle: saline
[6] = dose: 100.0 mg/kg/injection, schedule: Q01DX001 (ip), vehicle: saline with Tween-80
[7] = dose: 100.0 mg/kg/injection, schedule: Q01DX001 (ip), vehicle: saline
[8] = dose: 200.0 mg/kg/injection, schedule: Q01DX001 (ip), vehicle: saline
[9] = dose: 400.0 mg/kg/injection, schedule: Q01DX001 (ip), vehicle: saline
[10] = dose: 50.0 mg/kg/injection, schedule: Q01DX001 (ip), vehicle: saline
[11] = dose: 100.0 mg/kg/injection, schedule: Q01DX009 (ip), vehicle: saline with Tween-80
[12] = dose: 100.0 mg/kg/injection, schedule: Q04DX003 (ip), vehicle: saline with Tween-80
[13] = dose: 200.0 mg/kg/injection, schedule: Q01DX009 (ip), vehicle: saline with Tween-80
[14] = dose: 200.0 mg/kg/injection, schedule: Q04DX003 (ip), vehicle: saline with Tween-80
[15] = dose: 400.0 mg/kg/injection, schedule: Q04DX003 (ip), vehicle: saline with Tween-80

## O=C(O)c1nc(SCc2ccccc2)n(Cc2ccccc2)c1C(=O)O
dose: 100.0 mg/kg/injection, schedule: Q04DX002 (ip), vehicle: carboxymethylcellulose (CMC)
  T/C: 97 % of control and 89 % of control
dose: 100.0 mg/kg/injection, schedule: Q04DX003 (ip), vehicle: carboxymethylcellulose (CMC)
  T/C: 94 % of control and 97 % of control
dose: 200.0 mg/kg/injection, schedule: Q04DX002 (ip), vehicle: carboxymethylcellulose (CMC)
  T/C: 94 % of control and 115 % of control
dose: 200.0 mg/kg/injection, schedule: Q04DX003 (ip), vehicle: carboxymethylcellulose (CMC)
  T/C: 97 % of control and 98 % of control
dose: 400.0 mg/kg/injection, schedule: Q04DX002 (ip), vehicle: carboxymethylcellulose (CMC)
  T/C: 97 % of control and 87 % of control
dose: 400.0 mg/kg/injection, schedule: Q04DX003 (ip), vehicle: carboxymethylcellulose (CMC)
  T/C: 96 % of control

## COc1cc(NS(C)(=O)=O)ccc1Nc1c2ccc([N+](=O)[O-])cc2nc2c(C)cccc12
dose: 0.12 mg/kg/injection, schedule: Q01DX009 (ip), vehicle: saline
  T/C: 122 % of control
dose: 0.37 mg/kg/injection, schedule: Q04DX003 (ip), vehicle: saline
  T/C: 113 % of control
dose: 0.62 mg/kg/injection, schedule: Q01DX009 (ip), vehicle: saline
  T/C: 112 % of control
dose: 0.75 mg/kg/injection, schedule: Q04DX003 (ip), vehicle: saline
  T/C: 161 % of control
dose: 1.0 mg/kg/injection, schedule: Q01DX009 (ip), vehicle: saline
  T/C: 166 % of control
dose: 1.25 mg/kg/injection, schedule: Q01DX009 (ip), vehicle: saline
  T/C: 121 % of control
dose: 1.5 mg/kg/injection, schedule: Q04DX003 (ip), vehicle: saline
  T/C: 187 % of control
dose: 2.5 mg/kg/injection, schedule: Q01DX009 (ip), vehicle: saline
  T/C: 275 % of control
dose: 5.0 mg/kg/injection, schedule: Q01DX009 (ip), vehicle: saline
  T/C: 111 % of control and 277 % of control
dose: 5.0 mg/kg/injection, schedule: Q01DX009 (sc), vehicle: saline
  T/C: 165 % of control
dose: 7.5 mg/kg/injection, schedule: Q04DX003 (ip), vehicle: saline
  T/C: 218 % of control
dose: 15.0 mg/kg/injection, schedule: Q01DX001 (ip), vehicle: other
  T/C: 162 % of control
[1]
  T/C: 103 % of control
dose: 15.0 mg/kg/injection, schedule: Q04DX003 (ip), vehicle: saline
  T/C: 162 % of control
dose: 20.0 mg/kg/injection, schedule: Q01DX009 (ip), vehicle: saline
  T/C: 86 % of control
dose: 33.0 mg/kg/injection, schedule: Q01DX001 (ip), vehicle: other
  T/C: 180 % of control
dose: 50.0 mg/kg/injection, schedule: Q01DX001 (ip), vehicle: other
  T/C: 177 % of control
dose: 75.0 mg/kg/injection, schedule: Q01DX001 (ip), vehicle: other
  T/C: 159 % of control
[2]
  T/C: 203 % of control
dose: 113.0 mg/kg/injection, schedule: Q01DX001 (ip), vehicle: other
  T/C: 173 % of control
[3]
  T/C: 98 % of control

## OC1OC(CCl)C(Cl)C(O)C1O (configuration not stated)
[4]
  T/C: 106 % of control
[5]
  T/C: 101 % of control
dose: 400.0 mg/kg/injection, schedule: Q04DX003 (ip), vehicle: saline
  T/C: 98 % of control

## O=C1C2(c3ccccc3)CCC1(c1ccccc1)C(c1ccccc1)=C2c1ccccc1
[6]
  T/C: 93 % of control

## O=C1CC(=P(c2ccccc2)(c2ccccc2)c2ccccc2)C(=O)N1c1cccc2ccc(O)cc12
[2]
  T/C: 101 % of control
[3]
  T/C: 96 % of control
dose: 300.0 mg/kg/injection, schedule: Q01DX001 (ip), vehicle: saline
  T/C: 95 % of control

## CCOC(=O)Nc1cc(NCC(O)CN(C)c2ccc(OC)cc2)c([N+](=O)[O-])c(N)n1 (configuration not stated)
[6]
  T/C: 95 % of control
dose: 200.0 mg/kg/injection, schedule: Q01DX001 (ip), vehicle: saline with Tween-80
  T/C: 93 % of control
dose: 400.0 mg/kg/injection, schedule: Q01DX001 (ip), vehicle: saline with Tween-80
  T/C: 88 % of control

## Cc1c(C[N+](C)(C)C)c(=O)n(-c2ccccc2)n1C
[7]
  T/C: 104 % of control
[8]
  T/C: 98 % of control
[9]
  T/C: 98 % of control

## Cc1nc(Cl)c(C#N)c(C)c1[N+](=O)[O-]
[4]
  T/C: 95 % of control
[5]
  T/C: 90 % of control

## CN(C)CCCCCCN(C)C (tested in a mixture with another compound)
dose: 9.38 mg/kg/injection, schedule: Q01DX001 (ip), vehicle: saline
  T/C: 102 % of control
dose: 18.75 mg/kg/injection, schedule: Q01DX001 (ip), vehicle: saline
  T/C: 95 % of control
dose: 37.5 mg/kg/injection, schedule: Q01DX001 (ip), vehicle: saline
  T/C: 93 % of control

## Cc1c(C)c(C)c(Br)c(C)c1C
[10]
  T/C: 108 % of control
[7]
  T/C: 108 % of control
[8]
  T/C: 108 % of control
[9]
  T/C: 108 % of control

## COc1cc(-c2nc(CCl)no2)cc(OC)c1OC
dose: 100.0 mg/kg/injection, schedule: Q04DX002 (ip), vehicle: Klucel (hydroxypropylcellulose) (HPC)
  T/C: 95 % of control
dose: 200.0 mg/kg/injection, schedule: Q04DX002 (ip), vehicle: Klucel (hydroxypropylcellulose) (HPC)
  T/C: 104 % of control
dose: 400.0 mg/kg/injection, schedule: Q04DX002 (ip), vehicle: Klucel (hydroxypropylcellulose) (HPC)
  T/C: 104 % of control

## O=C(O)CSc1n[nH]c(=O)[nH]c1=O
[7]
  T/C: 117 % of control
[8]
  T/C: 97 % of control
[9]
  T/C: 113 % of control

## C[n+]1ccccc1/C=C/c1ccc(O)c2ccccc12
dose: 15.0 mg/kg/injection, schedule: Q01DX001 (ip), vehicle: saline
  T/C: 97 % of control
dose: 30.0 mg/kg/injection, schedule: Q01DX001 (ip), vehicle: saline
  T/C: 91 % of control
dose: 60.0 mg/kg/injection, schedule: Q01DX001 (ip), vehicle: saline
  T/C: 103 % of control
[2]
  T/C: 103 % of control

## CNC(=S)c1ccc(Cl)cc1
dose: 12.5 mg/kg/injection, schedule: Q01DX009 (ip), vehicle: Klucel (hydroxypropylcellulose) (HPC)
  T/C: 96 % of control
dose: 25.0 mg/kg/injection, schedule: Q01DX009 (ip), vehicle: Klucel (hydroxypropylcellulose) (HPC)
  T/C: 94 % of control

## O=C(O)C(Br)CF (configuration not stated)
dose: 100.0 mg/kg/injection, schedule: Q04DX002 (ip), vehicle: saline
  T/C: 93 % of control
dose: 200.0 mg/kg/injection, schedule: Q04DX002 (ip), vehicle: saline
  T/C: 97 % of control
dose: 400.0 mg/kg/injection, schedule: Q04DX002 (ip), vehicle: saline
  T/C: 87 % of control

## COc1ccc(NC(=O)CCC(=O)O)cc1
dose: 50.0 mg/kg/injection, schedule: Q01DX009 (ip), vehicle: saline with Tween-80
  T/C: 110 % of control
dose: 50.0 mg/kg/injection, schedule: Q04DX003 (ip), vehicle: saline with Tween-80
  T/C: 96 % of control
[11]
  T/C: 108 % of control
[12]
  T/C: 100 % of control
[13]
  T/C: 100 % of control
[14]
  T/C: 100 % of control
dose: 400.0 mg/kg/injection, schedule: Q01DX009 (ip), vehicle: saline with Tween-80
  T/C: 107 % of control
[15]
  T/C: 94 % of control

## COC(=O)C(N)Cc1ccc(OC(c2ccccc2)(c2ccccc2)c2ccccc2)cc1 (configuration not stated)
dose: 50.0 mg/kg/injection, schedule: Q01DX009 (ip), vehicle: saline
  T/C: 101 % of control
dose: 100.0 mg/kg/injection, schedule: Q01DX009 (ip), vehicle: saline
  T/C: 103 % of control
dose: 200.0 mg/kg/injection, schedule: Q01DX009 (ip), vehicle: saline
  T/C: 100 % of control
dose: 400.0 mg/kg/injection, schedule: Q01DX009 (ip), vehicle: saline
  T/C: 100 % of control

## O=C1OC(c2ccc3c(c2)OCO3)C(C(=O)CCl)c2ccccc21 (configuration not stated)
[12]
  T/C: 97 % of control
[14]
  T/C: 93 % of control

## c1ccc(CNNC2=NCCN2)cc1
[1]
  T/C: 103 % of control
dose: 31.0 mg/kg/injection, schedule: Q01DX009 (ip), vehicle: saline
  T/C: 102 % of control
[10]
  T/C: 103 % of control
dose: 62.5 mg/kg/injection, schedule: Q01DX009 (ip), vehicle: saline
  T/C: 92 % of control
[7]
  T/C: 114 % of control

## Nc1ccccc1C(=O)c1ccccc1
dose: 100.0 mg/kg/injection, schedule: Q01DX001 (ip), vehicle: Klucel (hydroxypropylcellulose) (HPC)
  T/C: 94 % of control
[11]
  T/C: 90 % of control
dose: 100.0 mg/kg/injection, schedule: Q04DX003 (ip), vehicle: Klucel (hydroxypropylcellulose) (HPC)
  T/C: 98 % of control
[12]
  T/C: 93 % of control
dose: 200.0 mg/kg/injection, schedule: Q01DX001 (ip), vehicle: Klucel (hydroxypropylcellulose) (HPC)
  T/C: 93 % of control
[13]
  T/C: 95 % of control
dose: 200.0 mg/kg/injection, schedule: Q04DX003 (ip), vehicle: Klucel (hydroxypropylcellulose) (HPC)
  T/C: 98 % of control
[14]
  T/C: 95 % of control
[15]
  T/C: 95 % of control
